{
  "source": "ChEMBL document CHEMBL1154679",
  "about": "“Synthesis and biological evaluation of coumarin-based inhibitors of NAD(P)H: quinone oxidoreductase-1 (NQO1)” (J Med Chem, 2009)",
  "key": {"[1]": {"molecular_target": "T1, NAD(P)H dehydrogenase [quinone] 1 (Homo sapiens, UniProt P15559)", "T1 sequence (P15559 whole entry)": "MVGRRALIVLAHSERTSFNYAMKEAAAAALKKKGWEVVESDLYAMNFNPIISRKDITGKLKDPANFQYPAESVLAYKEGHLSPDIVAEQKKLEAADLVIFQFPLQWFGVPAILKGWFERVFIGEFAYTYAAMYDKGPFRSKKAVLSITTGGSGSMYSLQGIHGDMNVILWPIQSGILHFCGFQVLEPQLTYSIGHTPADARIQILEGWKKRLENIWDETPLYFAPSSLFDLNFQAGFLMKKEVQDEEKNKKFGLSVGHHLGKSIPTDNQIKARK", "description": "Inhibition of human recombinant NQO1 in presence of BSA"}, "[2]": {"molecular_target": "T1, NAD(P)H dehydrogenase [quinone] 1", "remark": "listed apart in the source", "description": "Inhibition of human recombinant NQO1"}, "[3]": {"tested_on": "HCT-116", "test": "Cytotoxicity against human HCT116 cells assessed as reduction in cell number after 96 hrs by MTT assay", "format": "functional, cell-based", "details": "HCT-116, 96 h"}, "[4]": {"tested_on": "MIA PaCa-2", "test": "Cytotoxicity against human MIAPaCa2 cells assessed as reduction in cell number after 24 hrs by MTT assay", "format": "functional, cell-based", "details": "MIA PaCa-2, 24 h"}, "[5]": {"tested_on": "MIA PaCa-2", "test": "Cytotoxicity against human MIAPaCa2 cells assessed as reduction in cell number after 96 hrs by MTT assay", "format": "functional, cell-based", "details": "MIA PaCa-2, 96 h"}, "[6]": {"tested_on": "HCT-116", "test": "Cytotoxicity against human HCT116 cells assessed as reduction in cell number after 24 hrs by MTT assay", "format": "functional, cell-based", "details": "HCT-116, 24 h"}},
  "data": [
    {"smiles": "CCCC(c1c(O)c2ccccc2oc1=O)c1c(O)c2ccccc2oc1=O", "values": [
      {"measurement": "IC50", "setting": "[1]", "value": 5.32, "unit": "µM"},
      {"measurement": "IC50", "setting": "[2]", "value": 0.588, "unit": "µM"}
    ]},
    {"smiles": "Cc1cc2oc(=O)c(Cc3cccc4ccccc34)c(O)c2cc1C", "values": [
      {"measurement": "IC50", "setting": "[3]", "value": 56, "unit": "µM"},
      {"measurement": "IC50", "setting": "[4]", "value": "> 400", "unit": "µM"},
      {"measurement": "IC50", "setting": "[5]", "value": 188, "unit": "µM"},
      {"measurement": "IC50", "setting": "[6]", "value": 160, "unit": "µM"}
    ]},
    {"smiles": "Cc1ccc2oc(=O)c(Cc3c(O)c4cc(C)ccc4oc3=O)c(O)c2c1", "values": [
      {"measurement": "IC50", "setting": "[1]", "value": 5.5, "unit": "µM"},
      {"measurement": "IC50", "setting": "[2]", "value": 0.014, "unit": "µM"}
    ]},
    {"smiles": "COc1ccc2c(O)c(Cc3c(O)c4ccc(OC)cc4oc3=O)c(=O)oc2c1", "values": [
      {"measurement": "IC50", "setting": "[3]", "value": 187, "unit": "µM"},
      {"measurement": "IC50", "setting": "[4]", "value": 448, "unit": "µM"},
      {"measurement": "IC50", "setting": "[5]", "value": 303, "unit": "µM"},
      {"measurement": "IC50", "setting": "[6]", "value": "> 400", "unit": "µM"}
    ]},
    {"smiles": "Cc1ccc2c(O)c(Cc3c(O)c4ccc(C)c(C)c4oc3=O)c(=O)oc2c1C", "values": [
      {"measurement": "IC50", "setting": "[3]", "value": 35, "unit": "µM"},
      {"measurement": "IC50", "setting": "[4]", "value": 359, "unit": "µM"},
      {"measurement": "IC50", "setting": "[5]", "value": 119, "unit": "µM"},
      {"measurement": "IC50", "setting": "[6]", "value": 178, "unit": "µM"}
    ]},
    {"smiles": "COc1cc2oc(=O)c(Cc3c(O)c4cc(OC)c(OC)cc4oc3=O)c(O)c2cc1OC", "values": [
      {"measurement": "IC50", "setting": "[3]", "value": "> 400", "unit": "µM"},
      {"measurement": "IC50", "setting": "[4]", "value": "> 400", "unit": "µM"},
      {"measurement": "IC50", "setting": "[5]", "value": "> 400", "unit": "µM"},
      {"measurement": "IC50", "setting": "[6]", "value": "> 400", "unit": "µM"}
    ]},
    {"smiles": "Cc1cc2oc(=O)c(Cc3ccc4ccccc4c3)c(O)c2cc1C", "values": [
      {"measurement": "IC50", "setting": "[3]", "value": 180, "unit": "µM"},
      {"measurement": "IC50", "setting": "[4]", "value": 390, "unit": "µM"},
      {"measurement": "IC50", "setting": "[5]", "value": 162, "unit": "µM"},
      {"measurement": "IC50", "setting": "[6]", "value": 208, "unit": "µM"}
    ]},
    {"smiles": "Cc1cc2oc(=O)c(Cc3c(O)c4cc(C)c(C)cc4oc3=O)c(O)c2cc1C", "values": [
      {"measurement": "IC50", "setting": "[3]", "value": 35, "unit": "µM"},
      {"measurement": "IC50", "setting": "[4]", "value": 213, "unit": "µM"},
      {"measurement": "IC50", "setting": "[5]", "value": 106, "unit": "µM"},
      {"measurement": "IC50", "setting": "[6]", "value": 201, "unit": "µM"}
    ]},
    {"smiles": "Cc1ccc(Cc2c(O)c3cc(C)c(C)cc3oc2=O)cc1C", "values": [
      {"measurement": "IC50", "setting": "[3]", "value": 176, "unit": "µM"},
      {"measurement": "IC50", "setting": "[4]", "value": "> 400", "unit": "µM"},
      {"measurement": "IC50", "setting": "[5]", "value": 407, "unit": "µM"},
      {"measurement": "IC50", "setting": "[6]", "value": "> 400", "unit": "µM"}
    ]},
    {"smiles": "COc1cccc2oc(=O)c(Cc3c(O)c4c(OC)cccc4oc3=O)c(O)c12", "values": [
      {"measurement": "IC50", "setting": "[3]", "value": 80, "unit": "µM"},
      {"measurement": "IC50", "setting": "[4]", "value": 390, "unit": "µM"},
      {"measurement": "IC50", "setting": "[5]", "value": 350, "unit": "µM"},
      {"measurement": "IC50", "setting": "[6]", "value": "> 400", "unit": "µM"}
    ]},
    {"smiles": "O=c1oc2ccc(Cl)cc2c(O)c1Cc1c(O)c2cc(Cl)ccc2oc1=O", "values": [
      {"measurement": "IC50", "setting": "[1]", "value": 6.25, "unit": "µM"},
      {"measurement": "IC50", "setting": "[2]", "value": 0.009, "unit": "µM"}
    ]},
    {"smiles": "Cc1cc2oc(=O)c(Cc3ccccc3)c(O)c2cc1C", "values": [
      {"measurement": "IC50", "setting": "[3]", "value": 178, "unit": "µM"},
      {"measurement": "IC50", "setting": "[4]", "value": "> 400", "unit": "µM"},
      {"measurement": "IC50", "setting": "[5]", "value": 267, "unit": "µM"},
      {"measurement": "IC50", "setting": "[6]", "value": "> 400", "unit": "µM"}
    ]},
    {"smiles": "O=c1oc2ccccc2c(O)c1Cc1ccccc1", "values": [
      {"measurement": "IC50", "setting": "[1]", "value": 3.2, "unit": "µM"},
      {"measurement": "IC50", "setting": "[2]", "value": 0.144, "unit": "µM"}
    ]},
    {"smiles": "COc1ccc2oc(=O)c(Cc3c(O)c4cc(OC)ccc4oc3=O)c(O)c2c1", "values": [
      {"measurement": "IC50", "setting": "[1]", "value": 3.3, "unit": "µM"},
      {"measurement": "IC50", "setting": "[3]", "value": 48, "unit": "µM"},
      {"measurement": "IC50", "setting": "[4]", "value": 300, "unit": "µM"},
      {"measurement": "IC50", "setting": "[5]", "value": 405, "unit": "µM"},
      {"measurement": "IC50", "setting": "[6]", "value": 196, "unit": "µM"},
      {"measurement": "IC50", "setting": "[2]", "value": 0.011, "unit": "µM"}
    ]},
    {"smiles": "O=c1oc2ccccc2c(O)c1Cc1c(O)c2ccccc2oc1=O", "note": "[DICUMAROL]", "values": [
      {"measurement": "IC50", "setting": "[3]", "value": 19, "unit": "µM"},
      {"measurement": "IC50", "setting": "[4]", "value": 90, "unit": "µM"},
      {"measurement": "IC50", "setting": "[5]", "value": 52, "unit": "µM"},
      {"measurement": "IC50", "setting": "[6]", "value": 103, "unit": "µM"}
    ]}
  ]
}
